Assays:
Format in all cases: in vivo
[1] = test system: Southern corn rootworm (Diabrotica undecimpuctata howardi Barber); assay: Mite/insect screen, soil treatment (CRW); conditions: Diabrotica, percent mortality, soil treatment, read-out: CRW RESULTS %; for mortality at 12 ppm: CRW rate 12.00 ppm; for mortality at 24 ppm: CRW rate 24.00 ppm
In short: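 Compounds dissolved in acetone/alcohol (50:50) with Toximul R/S emulsifiers, diluted with water. Soil (15 g, with presoaked corn seed) treated with 1 mL test solution, dried 6–12 h, then five 2–3 instar larvae added; held at 23°C. Percent mortality and phytotoxicity scored after standard exposure periods.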

[2] = test system: Erysiphe graminis tritici (powdery mildew); assay: Greenhouse Test 1, foliar spray fungicide screen (POWD MDEW), host wheat; conditions: disease control rating, 400 ppm (+++ at 100 ppm)
[3] = test system: Pseudoperonospora cubensis (downy mildew); assay: Greenhouse Test 1, foliar spray fungicide screen (DOWN MDEW), host squash; conditions: disease control rating, 400 ppm (+++ at 100 ppm)
[4] = test system: Botrytis cinerea (gray mold); assay: Greenhouse Test 1, foliar spray fungicide screen (GRAY MOLD), host grape berries; conditions: disease control rating, 400 ppm (+++ at 100 ppm)
[5] = test system: Twospotted spider mites (Tetranychus urticae Koch); assay: Mite/insect screen, sprayed squash cotyledons (SM); conditions: Tetranychus urticae, percent mortality, read-out: SM RESULTS %; for mortality at 200 ppm: spray rate 200 ppm; for mortality at 400 ppm: spray rate 400 ppm
In short: (§1)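 Mortality and phytotoxicity read after standard exposure periods on sprayed squash: cotyledons for melon aphids and twospotted spider mites, excised leaves placed with southern armyworm larvae. Spray solutions were water dilutions of acetone/alcohol stocks containing TOXIMUL R and S emulsifiers, applied to runoff at 10 psi and air-dried one hour.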

[6] = test system: melon aphids (Aphis gossypii Glover); assay: Mite/insect screen, sprayed squash cotyledons (MA); conditions: Aphis gossypii, percent mortality, read-out: MA RESULTS %; for mortality at 200 ppm: spray rate 200 ppm; for mortality at 400 ppm: spray rate 400 ppm
In short: as §1

[7] = test system: Septoria tritici (leaf blotch); assay: Greenhouse Test 1, foliar spray fungicide screen (LEAF BLOT), host wheat; conditions: disease control rating, 400 ppm (+++ at 100 ppm)
[8] = test system: Puccinia recondita tritici (leaf rust); assay: Greenhouse Test 1, foliar spray fungicide screen (LEAF RUST), host wheat; conditions: disease control rating, 400 ppm (+++ at 100 ppm)
[9] = test system: Cercospora beticola (leaf spot); assay: Greenhouse Test 1, foliar spray fungicide screen (LEAF SPOT), host sugar beet; conditions: disease control rating, 400 ppm (+++ at 100 ppm)
[10] = test system: Venturia inaequalis (apple scab); assay: Greenhouse Test 1, foliar spray fungicide screen (APPL SCAB), host apple seedling; conditions: disease control rating, 400 ppm (+++ at 100 ppm)
[11] = test system: Pyricularia oryzae (rice blast); conditions: disease control rating, foliar spray, host rice; 400 ppm (+++ at 100 ppm)
[12] = test system: southern armyworm (Spodopetra eridania Cramer); assay: Mite/insect screen, sprayed squash leaves (SAW); conditions: Spodoptera eridania, percent mortality, read-out: SAW RESULTS %; for mortality at 200 ppm: spray rate 200 ppm; for mortality at 400 ppm: spray rate 400 ppm
In short: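 Percent mortality and phytotoxicity are the read-outs, assessed after standard exposure periods. Test solutions, made in 50:50 acetone/alcohol with two sulfonate/nonionic emulsifier blends and diluted in water, are sprayed to runoff on both leaf surfaces, which then dry for one hour.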

Structure (SMILES)	mortality at 12 ppm [1]	POWD MDEW [2]	DOWN MDEW [3]	GRAY MOLD [4]	mortality at 200 ppm [5]	mortality at 200 ppm [6]	LEAF BLOT [7]	LEAF RUST [8]	LEAF SPOT [9]	APPL SCAB [10]	RICE BLAST [11]	mortality at 200 ppm [12]	mortality at 24 ppm [1]	mortality at 400 ppm [5]	mortality at 400 ppm [6]	mortality at 400 ppm [12]
CC(CNc1nc(NCC(C)c2ccccc2)c2ccccc2n1)c1ccccc1 (stereo not drawn) [Example 27, N,N'-bis(2-phenylpropyl)-2,4-quinazolinediamine]	0%	- (- = 0-19% control at 400 ppm)	+++ (+++ = 90-100% control at 100 ppm)	- (- = 0-19% control at 400 ppm)	0%	0%	+ (+ = 20-89% control at 400 ppm)	+ (+ = 20-89% control at 400 ppm)	- (- = 0-19% control at 400 ppm)	- (- = 0-19% control at 400 ppm)	+ (+ = 20-89% control at 400 ppm)	0%				
Cc1ccc(CCOc2ncnc3ccccc23)cc1 [Example 87, 4-[2-(4-methylphenyl)ethoxy]quinazoline]	0%	++ (++ = 90-100% control at 400 ppm)	+++ (+++ = 90-100% control at 100 ppm)	- (- = 0-19% control at 400 ppm)	90%	100%	- (- = 0-19% control at 400 ppm)	++ (++ = 90-100% control at 400 ppm)	+ (+ = 20-89% control at 400 ppm)	- (- = 0-19% control at 400 ppm)	+++ (+++ = 90-100% control at 100 ppm)	0%	0%	90%	100%	50%
Cc1ccc(CCNc2nc(NCCc3ccc(C)cc3)c3ccccc3n2)cc1 [Example 28, N,N'-bis[2-(4-methylphenyl)ethyl]-2,4-quinazolinediamine]	0%	- (- = 0-19% control at 400 ppm)	+ (+ = 20-89% control at 400 ppm)	- (- = 0-19% control at 400 ppm)	0%	0%	- (- = 0-19% control at 400 ppm)	++ (++ = 90-100% control at 400 ppm)	- (- = 0-19% control at 400 ppm)	- (- = 0-19% control at 400 ppm)	+ (+ = 20-89% control at 400 ppm)	0%				
Fc1cccc2c(NCCc3ccc4ccccc4c3)ncnc12 [Example 31, 8-fluoro-N-[2-(2-naphthyl)ethyl]-4-quinazolinamine]	0%	+ (+ = 20-89% control at 400 ppm)	++ (++ = 90-100% control at 400 ppm)	- (- = 0-19% control at 400 ppm)	0%	40%	+++ (+++ = 90-100% control at 100 ppm)	+++ (+++ = 90-100% control at 100 ppm)	+ (+ = 20-89% control at 400 ppm)	- (- = 0-19% control at 400 ppm)	+++ (+++ = 90-100% control at 100 ppm)	80%	0%	0%	0%	30%
c1ccc(-c2ccc(CCNc3ncnc4ccccc34)cc2)cc1 [Example 106, N-[2-(1,1'-biphenyl)-4-ylethyl]-4-quinazolinamine]	0%	+++ (+++ = 90-100% control at 100 ppm)	+++ (+++ = 90-100% control at 100 ppm)	- (- = 0-19% control at 400 ppm)	100%	0%	+++ (+++ = 90-100% control at 100 ppm)	+++ (+++ = 90-100% control at 100 ppm)	+ (+ = 20-89% control at 400 ppm)	+++ (+++ = 90-100% control at 100 ppm)	+++ (+++ = 90-100% control at 100 ppm)	90%	0%	80%	80%	80%
CC(=O)N(CCc1ccc2ccccc2c1)c1ncnc2ccccc12 [Example 81, N-[2-(2-naphthyl)ethyl]-N-4-quinazolinylacetamide]	0%	+ (+ = 20-89% control at 400 ppm)	+ (+ = 20-89% control at 400 ppm)	- (- = 0-19% control at 400 ppm)	50%	0%	- (- = 0-19% control at 400 ppm)	+ (+ = 20-89% control at 400 ppm)	- (- = 0-19% control at 400 ppm)	+ (+ = 20-89% control at 400 ppm)	++ (++ = 90-100% control at 400 ppm)	0%	0%	0%	0%	0%
Clc1ccccc1OCCOc1ncnc2ccccc12 [Example 110, 4-[2-(2-chlorophenoxy)ethoxy]quinazoline]	0%	- (- = 0-19% control at 400 ppm)	+ (+ = 20-89% control at 400 ppm)	- (- = 0-19% control at 400 ppm)	0%	0%	- (- = 0-19% control at 400 ppm)	++ (++ = 90-100% control at 400 ppm)	- (- = 0-19% control at 400 ppm)	- (- = 0-19% control at 400 ppm)	+ (+ = 20-89% control at 400 ppm)	0%	0%	0%	0%	0%
CC(=O)N(CCc1ccc(-c2ccccc2)cc1)c1ncnc2ccccc12 [Example 108, N-[2-(1,1'-biphenyl)-4-ylethyl]-N-(4-quinazolinyl)acetamide]	0%	+ (+ = 20-89% control at 400 ppm)	+++ (+++ = 90-100% control at 100 ppm)	- (- = 0-19% control at 400 ppm)	60%	30%	+++ (+++ = 90-100% control at 100 ppm)	+ (+ = 20-89% control at 400 ppm)	++ (++ = 90-100% control at 400 ppm)	- (- = 0-19% control at 400 ppm)	+++ (+++ = 90-100% control at 100 ppm)	0%	0%	90%	20%	0%
